Laboratory results taken from the SangsterLogP compilation.

Test: not given

SMILES	logP
CCOc1ccc(OC(=O)NC)cc1	1.75
CNC(=O)Oc1ccc(I)cc1	2.34
CNC(=O)Oc1ccc(F)cc1	1.35
CCC(=O)c1cccc(OC(=O)NC)c1	1.51
CN(C)C(=O)Oc1ccc(F)cc1	1.65
CNC(=O)Oc1ccc(C)cc1	1.73
CNC(=O)Oc1cccc(C(C)=O)c1	0.97
CCC(C)c1ccc(OC(=O)N(C)C)cc1 (stereo not drawn)	3.6
Cc1ccc(OC(=O)N(C)C)cc1	2.1
CCc1ccc(OC(=O)N(C)C)cc1	2.58
CNC(=O)Oc1cccc(OC)c1	1.34
CN(C)C(=O)Oc1cccc(Cl)c1	2.26
CNC(=O)Oc1cccc(C)c1	1.73
CN(C)C(=O)Oc1ccc(Cl)cc1	2.23
CN(C)C(=O)Oc1ccc([N+](=O)[O-])cc1	1.54
CC(C)c1ccc(OC(=O)N(C)C)cc1	3.07
CCc1cccc(OC(=O)NC)c1	2.23
CC(=O)c1ccc(OC(=O)N(C)C)cc1	1.23
CCc1ccc(OC(=O)NC)cc1	2.27
CCOc1cccc(OC(=O)NC)c1	1.82
CNC(=O)Oc1ccc(OC)cc1	1.23
CNC(=O)Oc1cccc(N(C)C)c1	1.64
CNC(=O)Oc1cccc([N+](=O)[O-])c1	1.37
CNC(=O)Oc1cccc(I)c1	2.33
CNC(=O)Oc1cccc(C#N)c1	1.01

Test: method code SF-HPLC, from DOI: 10.1248/cpb.44.1338

SMILES	logP
CN(C)C(=O)Oc1cccc(F)c1	1.75
CN(C)C(=O)Oc1cccc([N+](=O)[O-])c1	1.56
CCc1cccc(OC(=O)N(C)C)c1	2.47
CN(C)C(=O)Oc1ccc(C#N)cc1	1.21
CCCc1ccc(OC(=O)N(C)C)cc1	3.15
CN(C)C(=O)Oc1ccc(Br)cc1	2.46
CN(C)C(=O)Oc1cccc(N(C)C)c1	1.93
CN(C)C(=O)Oc1cccc(C#N)c1	1.23
